Assay results published in patent US9682928B2 (NeuroPro Therapeutics, Inc., priority 2009, dated 2017).
Entries after “also recorded” stand apart in the source; their conditions may differ. Read-outs that look alike come from different tables or passages of the source.

Columns and labels:
Sprague-Dawley rats = assay: Kainic acid induced seizures in rats; assay type: in vivo, rat; set-up: key to Seizures Severity Mean ± SD (grade 0 to IV): seizure grade 0 = no response to IV = status epilepticus; details: for change in vivo at 20 µmol/kg / change in vivo at 100 mg/kg: Rattus norvegicus, 2 h; for change in vivo at 100 mg/kg: ip; for Reduction in seizure score / severity: bumetanide 100 mg/kg i.p. (274 umoles/kg); for Reduction in seizure severity / seizure score / Reduction in seizures / seizure activity: kainic acid 15 mg/kg, rat, 20 μmoles/kg (bumetanide 7.3 mg/kg i.p.)
Experimental: Formulation of kainic acid was performed by NTS as a stock solution by reconstituting kainic acid with (100%) saline that was stored at 4° C. Vehicle control received saline solution. […] The research investigators were blinded to the treatment groups.
Solutions were prepared fresh daily just prior to use; dosing of all 10 rats with any given compound occurred on a single day after preparing the dosing solution. […] Unused remaining dosing solutions were stored frozen.
Animals were maintained in a temperature- and light-controlled environment in accord with the principles and procedures of the National Institutes of Health Guidelines for Care and Use of Laboratory Animals. Seizures were induced in adult, male Sprague-Dawley rats (260-300 g) by injection of KA (15 mg/kg, i.p.). In addition, animals were injected with test compounds following kainic acid to determine the effects on protection from epilepsy. Animals were monitored behaviorally for seizures for 2 hours after injection.
Seizure activity was initially characterized as either yes (1) or no (0) within a 2 hour period following injection of KA. A seizure severity grade was assigned based on the maximal response achieved on a scale from 0 to IV as follows: 0, no response; I, single limb clonus and scratching; II, multiple limb clonus and staggering gait; […], limb clonus, tonic extension of limbs and falling; IV, continuous grade III seizures for longer than 30 min (status epilepticus).
The results were expressed as the mean±standard deviation (SD). The significance of difference in the epileptic data was analyzed using a one-way analysis of variance (ANOVA) followed by Fisher's post hoc test. Repeated-measures ANOVA were computed on the monitoring data and the significance of the difference among groups were evaluated by Fisher's post hoc test.
All groups were subjected to kainic acid.
The induction of seizures in rats with kainic acid was determined as either yes seizures (1) or no seizures (0).

primate = assay: Acute primate seizure models; details: in vivo
Description: FIG. 13 depicts epileptiform spikes and bursts generated using software for the automatic quantification epileptiform activity. FIG. 13A depicts after-discharge activity that was elicited by 4 seconds of electrical stimulation to primate sensory cortex. The software developed by Haglund and Hochman (2007) finds the envelope around a burst of spikes and calculates the duration of the burst, the number of spikes within the burst, and the average spike amplitude of all spikes comprising the burst.
FIG. 13B depicts a typical spike generated by an acute bicuculline focus in primate motor cortex. The bicuculline model generates epileptiform activity that is similar to spontaneous interictal spiking in human subjects. Analysis of the data by the software identifies the time of occurrence of each spike and its peak-to-peak amplitude. This software can automatically process entire data sets consisting of hours of recorded data from multiple traces and generate an output of the data. Statistical analysis of data sets from multiple experiments can then be used to analyze the effects of various treatments (e.g., compounds that suppress epliptiform activity). See Haglund and Hochman (2007) “Imaging of Intrinsic Optical Signals in Primate Cortex during Epileptiform Activity.” Epilepsia 48(Suppl. 4): 65-74; See also Haglund and Hochman (Feb. 23, 2005) J. Neurophysiol. 94: 907-918.

Male CD-1 mice = assay: Chung (SNL) neuropathic pain study in mice; assay type: in vivo, mouse; details: for Other overt toxicity: in vivo, ip; for Reversal of tactile hypersensitivity: mice, i.p., SNL
Description: Male CD-1 mice (25-35 g, Charles River) were used for all studies. Mice were housed in groups of five in Plexiglas chambers with food and water available ad libitum. All animals were maintained on a 12 hr light/dark cycle (lights on at 7:00 AM) in a temperature- and humidity-controlled animal colony. The health status of the animals used in this study was examined on arrival. Only animals in good health were acclimatized to laboratory conditions and used in the study. The acclimation period to the vivarium was a minimum of 7 days. All animal experiments were performed under an approved protocol in accordance with institutional guidelines and in accordance with the Guide for the Care and Use of Laboratory Animals as adopted and promulgated by the National Institutes of Health.
NTP has provided adequate amounts of NTP-2014 and NTP-2026 along with detailed instructions for preparing injection solutions. Gabapentin (Gallipot, St. Paul, Minn.) was dissolved in physiological saline. Injections were made using a 1-mL syringe with a 30-gauge needle at a volume of 10 ml/kg body weight. Animal body weights were measured prior to surgery and then on the morning of Day 7 (post-SNL testing). For i.p. drug administration, each mouse was firmly grasped by the nape of the neck and the tail was tucked between the last two fingers and palm of the technician's hand. The back of the mouse iwasarched slightly backwards exposing the abdominal region. The needle was inserted through the skin and abdominal musculature into the peritoneal cavity just off of the midline. Mice are immediately returned to the testing cage until behavioral testing.
NTP2026 (56, 100 and 180 mg/kg, i.p.); NTP 2014 (32, 56 and 100 mg/kg, i.p.); Gabapentin (100 mg/kg, i.p.); Vehicle Control (10% TPGS in benzoate buffer, i.p.).
SNL surgeries were performed based on the procedures described for rats (Kim and Chung, 1992) and modified for mice (Wang et al., 2001). Anesthesia was maintained with 0.5% halothane in O2 and body temperature was maintained using a heated water blanket. After surgical preparation of the mice, a 1-cm paraspinal incision was made at the level L4-S2. The L5 and L6 spinal nerves were exposed and tightly ligated using a 4-0 silk suture. The ligation was made distal to the dorsal root ganglion but before the fibers joined the sciatic nerve. The incisions were then closed, and animals are allowed to recover. […] Mechanical thresholds were determined by measuring the paw withdrawal threshold to probing with a series of calibrated von Frey filaments as described below.
Non-noxious sensory thresholds of the mice were determined by paw withdrawal […] to probing with a series of calibrated (0.02-2.34 gm on a logarithmic scale) von Frey filaments (“up and down” method) according to Chaplan et al. (1994) and analyzed using a Dixon (1980) nonparametric test. Results are expressed as the mean withdrawal thresholds. Baseline latencies/thresholds were determined prior to surgery, on the morning of Day 7, and then between 20-60 minutes post dosing with the test drugs. The post-drug time corresponds to the time of maximal activity for these compounds in the tail-flick assay.

[1] = KA 15 mg/kg i.p., 20 μmoles/kg IP
[2] = KA 15 mg/kg i.p., 20 μmoles/kg IP, 2 hours
[3] = group 11, bumetanide 100 mg/kg (274 umoles/kg)
[4] = 20 μmoles/kg IP, vs DMSO control

With `CCCCNc1cc(C(=O)O)cc(S(N)(=O)=O)c1Oc1ccccc1` [Bumetanide, reference compound] the “Seizures Severity Mean ± SD (grade 0 to IV)” value (“Seizures Severity Mean ± SD” below) (Sprague-Dawley rats; [1]) was 0.7000 ± 0.8233, the “Seizures Mean ± SD (1 = yes, 0 = no)” value (Sprague-Dawley rats; [2]) was 0.5000 ± 0.5270 and the change in vivo at 20 µmol/kg (Sprague-Dawley rats; 20 μmoles/kg IP, vs DMSO control, read-out: Percent reduction in Seizures) was -44.4%. The change in vivo at 20 µmol/kg (Sprague-Dawley rats; 20 μmoles/kg IP, vs DMSO control, read-out: Percent reduction in Seizures Severity) was -70.8%, the change in vivo at 100 mg/kg (Sprague-Dawley rats; read-out: Percent reduction in Seizures) was -88.9% and the change in vivo at 100 mg/kg (Sprague-Dawley rats; read-out: Percent reduction in Seizures Severity) was -95.8%. For the same compound, the “Reduction in seizure score / severity” value (Sprague-Dawley rats) was “seizures (S); 96%”, the “Reduction in seizure score / severity” value (Sprague-Dawley rats; listed as bumetanide) was 95.8% and the Reduction in seizures (Sprague-Dawley rats; bumetanide 100 mg/kg i.p., listed as bumetanide) was 88.9%. The “Seizures Mean ± SD (1 = yes, 0 = no)” value (Sprague-Dawley rats; [3]) was 0.1000 ± 0.3162, the “Seizures Severity Mean ± SD” value (Sprague-Dawley rats; [3]) was 0.1000 ± 0.3162 and the “Reduction in seizure severity / seizure score” value (Sprague-Dawley rats) was “seizures (NS); 71%”. For the same compound, the “Reduction in seizures / seizure activity” value (Sprague-Dawley rats) was 44% reduction in, the “Reduction in seizure severity / seizure score” value (Sprague-Dawley rats; listed as bumetanide) was 70.8% and the “Suppression of epileptiform activity” value (primate) was “significantly more than furosemide”.
`CCCCN(CCCC)c1cc(C(=O)O)cc(S(N)(=O)=O)c1Oc1ccccc1` [NTP-2014, 3-Aminosulfonyl-5-N,N-dibutylamino-4-phenoxybenzoic acid] was tested, and the Other overt toxicity (Male CD-1 mice; male, CD-1, mouse) was “high dose group (180 mg/kg). No other”, the “Reversal of tactile hypersensitivity” value (Male CD-1 mice) was “dose-dependent reversal of tactile hypersensitivity; also recorded: effective analgesic effects; also recorded: Dose-dependent, very significant” and the Other overt toxicity (Male CD-1 mice; mouse) was “No other overt toxicity”.
With `CCCCNc1cc(C(=O)NN2CCOCC2)cc(S(N)(=O)=O)c1Oc1ccccc1` [NTP-2024, N-Morpholinyl 3-Aminosulfonyl-5-N-butylamino-4-phenoxybenzamide] the “Percent reduction in Seizures” value (Sprague-Dawley rats; [4]) was −88.9%, the “Percent reduction in Seizures Severity” value (Sprague-Dawley rats; [4]) was −95.8% and the “Seizures Severity Mean ± SD” value (Sprague-Dawley rats; [1]) was 0.1000 ± 0.3162. For the same compound, the “Seizures Mean ± SD (1 = yes, 0 = no)” value (Sprague-Dawley rats; [2]) was 0.1000 ± 0.3162, the “Reduction in seizure severity / seizure score” value (Sprague-Dawley rats) was 96% reduction in and the “Reduction in seizures / seizure activity” value (Sprague-Dawley rats) was 89% reduction in. The “Suppression of epileptiform activity” value (primate) was “efficacious in suppressing epileptiform activity”.
`CCCCNc1cc(C(=O)N(C)CCCN(C)C)cc(S(N)(=O)=O)c1Oc1ccccc1` [NTP-2026, N-(3-(Dimethylamino)propyl)-N-methyl 3-Aminosulfonyl-5-N-butylamino-4-phenoxybenzamide] was tested, and the “Reversal of tactile hypersensitivity” value (Male CD-1 mice) was “dose-dependent reversal of tactile hypersensitivity; also recorded: Dose-dependent, significant reversal of”.
